Columns and labels:
[1] = target: T1, ESR1 (estrogen receptor 1) (Homo sapiens, UniProt P03372); assay: ATG_ERE_CIS: Factorial reporter gene assay (HepG2); format: cell-based; conditions: HepG2
T1 construct: expressed in transfected cells; host or cells: HepG2
Method: A multiple reporter transcription unit (MRTU) library consisting of 48 transcription factor binding sites was transfected into the HepG2 human liver hepatoma cell line. In addition to the cis-acting reporter genes (CIS), a modification of the approach was used to generate a trans-system (TRANS) with a mammalian one-hybrid assay consisting of an additional 25 MRTU library reporting the activity of nuclear receptor super-family members. […] These assays were performed by Attagene Inc. (Morrisville NC) under contract to EPA.
In addition to the cis-acting reporter genes (CIS), a modification of the approach was used to generate a trans-system (TRANS) with a mammalian one-hybrid assay consisting of an additional 25 MRTU library reporting the activity of nuclear receptor super-family members. […] Chemicals were then tested in the CIS and TRANS assays at seven concentrations starting at the MTC and followed by three-fold serial dilutions. These assays were performed by Attagene Inc. (Morrisville NC) under contract to EPA. Detailed description of the methods, data and analysis methods for this dataset will be presented in a separate publication.

CYP2B6 = assay: CLZD_CYP2B6: Change in expression of CYP2B6 (primary human hepatocytes); format: cell-based; conditions: 24 hr
Outline: (§1)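 Read-out: mRNA change by multiplexed quantitative nuclease protection assay. Primary human hepatocytes; 5 concentrations, 0.004-40 µM; exposures 6, 24, 48 hr.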

CYP3A4 = assay: CLZD_CYP3A4: Change in expression of CYP3A4 (primary human hepatocytes); format: cell-based; conditions: 24 hr
Outline: as §1

Mouse Liver [2] = conditions: mouse, chronic study, ref ToxRefDB; cited from earlier work
Rat Liver [3] = conditions: rat, chronic study, ref ToxRefDB; cited from earlier work
Rat Liver [4] = conditions: rat, chronic study, ref ToxRefDB; cited from earlier work; remark: listed apart in the source
Rat Liver [5] = conditions: rat, chronic study, ref ToxRefDB; cited from earlier work; remark: listed apart in the source
PXR (NR1I2) [6] = target: T2, PXR (NR1I2) (Homo sapiens, UniProt O75469); assay: ATG_PXRE_CIS: Factorial reporter gene assay (HepG2); format: cell-based; parameters: endogenous in cells; host or cells: HepG2; conditions: HepG2
T2 sequence (O75469 1-434): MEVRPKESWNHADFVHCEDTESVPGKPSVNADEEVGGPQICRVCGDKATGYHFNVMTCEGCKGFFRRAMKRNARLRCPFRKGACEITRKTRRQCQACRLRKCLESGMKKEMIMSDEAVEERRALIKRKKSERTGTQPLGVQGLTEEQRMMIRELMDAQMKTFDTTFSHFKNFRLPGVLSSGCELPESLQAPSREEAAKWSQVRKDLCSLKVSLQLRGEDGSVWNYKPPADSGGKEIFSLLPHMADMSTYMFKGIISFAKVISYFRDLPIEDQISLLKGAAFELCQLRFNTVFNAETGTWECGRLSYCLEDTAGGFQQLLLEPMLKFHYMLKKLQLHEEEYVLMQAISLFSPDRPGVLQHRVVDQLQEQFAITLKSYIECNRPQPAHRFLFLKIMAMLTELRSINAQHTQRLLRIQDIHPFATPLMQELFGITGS
Outline: (§2)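 HepG2 cells were transfected with a multiple reporter transcription unit (MRTU) library of 48 transcription factor binding sites for the cis-acting PXRE assay. The ERRg, FXR and PPARg assays used a trans mammalian one-hybrid system with a further 25-unit nuclear receptor MRTU library. Chemicals were tested at seven concentrations, from the MTC downward in three-fold steps.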

[7] = target: T3, PPARG (peroxisome proliferator-activated receptor gamma) (Homo sapiens, UniProt P37231); assay: ATG_PPARg_TRANS: Factorial reporter gene assay (HepG2); format: cell-based; conditions: HepG2
T3 construct: expressed in transfected cells; host or cells: HepG2
T3 sequence (P37231 1-505): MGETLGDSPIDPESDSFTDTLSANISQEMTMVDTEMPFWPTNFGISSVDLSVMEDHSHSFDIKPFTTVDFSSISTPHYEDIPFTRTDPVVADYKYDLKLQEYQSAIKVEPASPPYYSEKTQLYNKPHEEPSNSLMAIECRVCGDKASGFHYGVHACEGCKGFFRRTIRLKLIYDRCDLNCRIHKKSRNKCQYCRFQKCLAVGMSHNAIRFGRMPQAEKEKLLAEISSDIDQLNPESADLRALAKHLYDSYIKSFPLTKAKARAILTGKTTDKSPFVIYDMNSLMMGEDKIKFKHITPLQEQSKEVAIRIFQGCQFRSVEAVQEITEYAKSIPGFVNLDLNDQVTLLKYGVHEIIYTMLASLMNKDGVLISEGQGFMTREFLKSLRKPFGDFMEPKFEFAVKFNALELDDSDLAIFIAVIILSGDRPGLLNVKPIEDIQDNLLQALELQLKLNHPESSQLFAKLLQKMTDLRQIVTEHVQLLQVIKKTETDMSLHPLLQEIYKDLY
Outline: as §2

AR (androgen receptor) = assay: NVS_NR_hAR: Human AR 3H-Methyltrienolone (cell-free HTS); format: binding
Description: These are a collection of biochemical assays measuring binding constants and enzyme inhibition values. Chemicals were initially screened at a single concentration in duplicate wells at a concentration of 10 [drawing 63] M for cytochrome P-450 assays and 25 [drawing 64] M for all others. […] These assays were run by Caliper Life Sciences (Hanover, MD) under contract to EPA. Short assay descriptions are available at: http://www.caliperls.com/products/contract-research/in-vitro/.
Cell-free HTS Assays: A collection of biochemical assays measuring binding constants and enzyme inhibition values. […] These assays were run by Caliper Life Sciences (Hanover, MD) under contract to EPA. Short assay descriptions are available at http://www.caliperls.com/products/contract-research/in-vitro/. Values for all endpoints were imported into GeneData Screener (Basel, Switzerland) and normalised to solvent controls from the same plate as the tested compounds and expressed as percent of neutral control. Concentration-response curves were fit in GeneData Screener (Basel, Switzerland) Condeseo module using the Hill equation and AC50 values were determined. […] Detailed description of the methods, data and analysis methods for this dataset are described in a separate publication.

PXR (NR1I2) [8] = target: T2, PXR (NR1I2); assay: NVS_NR_hPXR: Human PXR Fluormone PXR (SXR) green (cell-free HTS); format: binding
Outline: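 Responses were normalized to same-plate solvent controls as percent of neutral control. AC50 values came from Hill-equation fits of concentration-response curves.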

Mouse Liver [9] = conditions: mouse, chronic study, ref ToxRefDB; cited from earlier work; remark: listed apart in the source
Mouse Liver [10] = conditions: mouse, chronic study, ref ToxRefDB; cited from earlier work; remark: listed apart in the source
PXR (NR1I2) [11] = target: T2, PXR (NR1I2); assay: ATG_PXR_TRANS: Factorial reporter gene assay (HepG2); format: cell-based; parameters: endogenous in cells; host or cells: HepG2; conditions: HepG2
Outline: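 HepG2 cells transfected with multiplexed reporter libraries: cis-acting binding-site reporters (CIS) and a one-hybrid nuclear-receptor trans system (TRANS). Chemicals tested at seven concentrations, starting at the maximum tolerated concentration with three-fold serial dilutions.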

T1 sequence (P03372 whole entry): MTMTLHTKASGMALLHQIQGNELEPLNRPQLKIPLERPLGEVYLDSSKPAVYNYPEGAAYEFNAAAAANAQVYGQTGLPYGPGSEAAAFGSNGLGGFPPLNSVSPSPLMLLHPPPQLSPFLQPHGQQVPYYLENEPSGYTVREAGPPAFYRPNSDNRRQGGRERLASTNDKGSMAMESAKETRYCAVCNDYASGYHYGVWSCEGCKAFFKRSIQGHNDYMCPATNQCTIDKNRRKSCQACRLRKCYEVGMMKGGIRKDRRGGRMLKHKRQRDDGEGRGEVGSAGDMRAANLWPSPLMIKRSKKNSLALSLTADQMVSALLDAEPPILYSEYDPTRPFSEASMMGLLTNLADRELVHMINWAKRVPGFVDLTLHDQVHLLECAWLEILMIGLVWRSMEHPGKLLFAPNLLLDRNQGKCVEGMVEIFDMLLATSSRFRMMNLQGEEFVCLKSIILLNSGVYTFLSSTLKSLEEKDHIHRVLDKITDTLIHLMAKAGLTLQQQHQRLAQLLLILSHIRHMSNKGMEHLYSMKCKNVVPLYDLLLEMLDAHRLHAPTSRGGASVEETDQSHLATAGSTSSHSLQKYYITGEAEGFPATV

Q: For `Cc1cc(C)nc(NC(=O)NS(=O)(=O)c2ccccc2C(=O)OC2COC2)n1` [r232], which ATG_ERE_CIS [1] is on record?
A: Its ATG_ERE_CIS is 4.319.

Q: And the CLZD_CYP2B6_24 (CYP2B6)?
A: The CLZD_CYP2B6_24 was 4.534.

Q: What about the CLZD_CYP3A4_24 (CYP3A4) of the same molecule?
A: Its CLZD_CYP3A4_24 is 4.535.

Q: And the CHR_Mouse_Liver_1_AnyLesion (Mouse Liver [2])?
A: The CHR_Mouse_Liver_1_AnyLesion was 6.

Q: And the CHR_Rat_Liver_1_AnyLesion (Rat Liver [3])?
A: The CHR_Rat_Liver_1_AnyLesion was 6.

Q: And the CHR_Rat_Liver_2_PreneoplasticLesion (Rat Liver [4])?
A: The CHR_Rat_Liver_2_PreneoplasticLesion was 6.

Q: And the CHR_Rat_Liver_3_NeoplasticLesion (Rat Liver [5])?
A: Its CHR_Rat_Liver_3_NeoplasticLesion is 0.

Q: What about the ATG_PXRE_CIS (PXR (NR1I2) [6]) of the same molecule?
A: The ATG_PXRE_CIS was 4.337.

Q: Which ATG_PPARg_TRANS [7] does the source give for `CCCN(CCOc1c(Cl)cc(Cl)cc1Cl)C(=O)n1ccnc1` [r251] here?
A: Its ATG_PPARg_TRANS is 5.456.

Q: And the NVS_NR_hAR (AR (androgen receptor))?
A: The NVS_NR_hAR was 4.903.

Q: And the NVS_NR_hPXR (PXR (NR1I2) [8])?
A: Its NVS_NR_hPXR is 5.274.

Q: And the CHR_Mouse_Liver_1_AnyLesion (Mouse Liver [2])?
A: The CHR_Mouse_Liver_1_AnyLesion was 6.

Q: And the CHR_Mouse_Liver_2_PreneoplasticLesion (Mouse Liver [9])?
A: The CHR_Mouse_Liver_2_PreneoplasticLesion was 6.

Q: What about the CHR_Mouse_Liver_3_NeoplasticLesion (Mouse Liver [10]) of the same molecule?
A: Its CHR_Mouse_Liver_3_NeoplasticLesion is 6.

Q: What about the CHR_Rat_Liver_1_AnyLesion (Rat Liver [3]) of the same molecule?
A: Its CHR_Rat_Liver_1_AnyLesion is 6.

Q: What about the CHR_Rat_Liver_2_PreneoplasticLesion (Rat Liver [4]) of the same molecule?
A: The CHR_Rat_Liver_2_PreneoplasticLesion was 0.

Q: What about the CHR_Rat_Liver_3_NeoplasticLesion (Rat Liver [5]) of the same molecule?
A: The CHR_Rat_Liver_3_NeoplasticLesion was 0.

Q: What about the ATG_PXR_TRANS (PXR (NR1I2) [11]) of the same molecule?
A: The ATG_PXR_TRANS was 5.444.

Q: And the ATG_PXRE_CIS (PXR (NR1I2) [6])?
A: The ATG_PXRE_CIS was 5.538.

Source: paper PMC3038857, “Using Nuclear Receptor Activity to Stratify Hepatocarcinogens” (PLoS ONE, 2011)
